Source: ChEMBL document CHEMBL4808200, “Identification of a Series of N-Methylpyridine-2-carboxamides as Potent and Selective Inhibitors of the Second Bromodomain (BD2) of the Bromo and Extra Terminal Domain (BET) Proteins” (J Med Chem, 2021)
In brackets after ≈: the same amount, converted by molar mass.

Experiments:
[1] = Intrinsic clearance in Beagle dog cryopreserved pooled hepatocytes at 0.5 uM measured up to 120 mins by LC-MS/MS analysis; type: ADME, tissue-based, Canis lupus familiaris, Hepatocyte; settings: 2 h
[2] = Oral bioavailability in Wistar Han rat at 3 mg/kg administered via gavage by LC-MS/MS analysis; type: ADME, organism-based; settings: in vivo
[3] = Permeability of the compound at pH 7.4 by artificial membrane permeability assay; type: ADME; settings: PAMPA, read-out: permeability
[4] = Intrinsic clearance in human cryopreserved pooled hepatocytes at 0.5 uM measured up to 120 mins by LC-MS/MS analysis; type: ADME, tissue-based, Hepatocyte; settings: 2 h
[5] = Clearance in Wistar Han rat at 1 mg/kg, iv administered as 1 hr infusion or 3 mg/kg, po administered via gavage by LC-MS/MS analysis; type: ADME, organism-based; settings: in vivo
[6] = Intrinsic clearance in Wistar Han rat cryopreserved pooled hepatocytes at 0.5 uM measured up to 60 mins by LC-MS/MS analysis; type: ADME, tissue-based, Hepatocyte; settings: 1 h
[7] = Unbound clearance in Wistar Han rat at 1 mg/kg, iv administered as 1 hr infusion or 3 mg/kg, po administered via gavage by LC-MS/MS analysis; type: ADME, organism-based; settings: in vivo
physchem = settings: buffer, pH 7.4
[8] = Half life in Wistar Han rat at 1 mg/kg, iv administered as 1 hr infusion or 3 mg/kg, po administered via gavage by LC-MS/MS analysis; type: ADME, organism-based; settings: in vivo
[9] = Solubility of the compound in pH 6.5 FaSSIF at […] measured after 16 hrs by HPLC analysis; type: physicochemical
[10] = Volume of distribution at steady state in Wistar Han rat at 1 mg/kg, iv administered as 1 hr infusion or 3 mg/kg, po administered via gavage by LC-MS/MS analysis; type: ADME, organism-based; settings: in vivo, read-out: Vdss
[11] = Oral bioavailability in Beagle dog; type: ADME, organism-based, Canis lupus familiaris; settings: in vivo
[12] = Clearance in Beagle dog at 0.5 mg/kg, iv administered as 1 hr infusion on day 1 and day 7 to achieve a target dose of 1 mg/kg by LC-MS/MS analysis; type: ADME, organism-based, Canis lupus familiaris; settings: in vivo, dose 0.5-1 mg/kg, time 7 day
[13] = Unbound clearance in Beagle dog at 0.5 mg/kg, iv administered as 1 hr infusion on day 1 and day 7 to achieve a target dose of 1 mg/kg by LC-MS/MS analysis; type: ADME, organism-based, Canis lupus familiaris; settings: in vivo, 168 h, dose 0.5-1 mg/kg, time 7 day
[14] = Volume of distribution at steady state in Beagle dog at 0.5 mg/kg, iv administered as 1 hr infusion on day 1 and day 7 to achieve a target dose of 1 mg/kg by LC-MS/MS analysis; type: ADME, organism-based, Canis lupus familiaris; settings: in vivo, dose 0.5-1 mg/kg, time 7 day, read-out: Vdss
[15] = Half life in Beagle dog at 0.5 mg/kg, iv administered as 1 hr infusion on day 1 and day 7 to achieve a target dose of 1 mg/kg by LC-MS/MS analysis; type: ADME, organism-based, Canis lupus familiaris; settings: in vivo, dose 0.5-1 mg/kg, time 7 day

Structure (SMILES) | Papp [3] [×10⁻⁶ cm/s] | chromatographic logD (physchem) | solubility at 16 h [9] [µg/mL] | further results
CNC(=O)c1cc(C(=O)NC2CC2)cc(Cc2cccc3c2CCN3)n1.Cl | 19 | 3 | 953 | CLH [1]: < 0.65 mL/min/g; bioavailability [2]: 98%; CLH [4]: < 0.45 mL/min/g; clearance [5]: 33 mL/min/kg; CLH [6]: 0.88 mL/min/g; CL free [7]: 73 mL/min/kg; half-life [8]: 114 min; Vd [10]: 4.1 L/kg
CNC(=O)c1cc(C(=O)N[C@H]2[C@@H]3COC[C@@H]32)cc([C@@H](C)c2ccccc2)n1 | 37 | 4.1 | 117 (≈ 320 µM) | CLH [1]: < 0.65 mL/min/g; bioavailability [11]: 14%; bioavailability [2]: 39%; clearance [12]: 44 mL/min/kg; CL free [13]: 171 mL/min/kg; CLH [4]: < 0.45 mL/min/g; clearance [5]: 52 mL/min/kg; CLH [6]: 2.03 mL/min/g; CL free [7]: 147 mL/min/kg; half-life [8]: 24 min; Vd [14]: 1.3 L/kg; Vd [10]: 1.7 L/kg; half-life [15]: 24 min
CNC(=O)c1cc(C(=O)N[C@H]2[C@@H]3COC[C@@H]32)cc(C(O)c2ccccc2)n1 (some centres not stated) | 2.4 | 2.2 | 473 (≈ 1290 µM) | 
CNC(=O)c1cccc(Cc2ccccc2)n1 | 77 | 4.3 | 258 (≈ 1140 µM) | 
CNC(=O)c1cc(C(=O)N[C@H]2C[C@@H]2C)cc(Cc2cccc3[nH]ccc23)n1 | 18.3 | 3 | 127 (≈ 350 µM) | CLH [1]: < 0.65 mL/min/g; bioavailability [11]: 55%; bioavailability [2]: 48%; clearance [12]: 13 mL/min/kg; CL free [13]: 88 mL/min/kg; CLH [4]: < 0.45 mL/min/g; clearance [5]: 18 mL/min/kg; CLH [6]: 1.06 mL/min/g; CL free [7]: 69 mL/min/kg; half-life [8]: 72 min; Vd [14]: 1.6 L/kg; Vd [10]: 1.2 L/kg; half-life [15]: 132 min
CNC(=O)c1cc(C(=O)N[C@H]2[C@@H]3COC[C@@H]32)cc(Cc2cccc3[nH]ccc23)n1 | 16 | 3.1 | 91 (≈ 233 µM) | CLH [1]: < 0.65 mL/min/g; bioavailability [11]: 41%; bioavailability [2]: 69%; clearance [12]: 4 mL/min/kg; CL free [13]: 19 mL/min/kg; CLH [4]: < 0.45 mL/min/g; clearance [5]: 39 mL/min/kg; CLH [6]: 2.05 mL/min/g; CL free [7]: 206 mL/min/kg; half-life [8]: 42 min; Vd [14]: 0.9 L/kg; Vd [10]: 1.8 L/kg; half-life [15]: 150 min
CC(=O)Nc1c(F)cc(C(=O)N[C@H]2CC[C@H](O)CC2)cc1O[C@@H](C)c1ccccc1 [GSK046] |  | 2.8 |  | 
CNC(=O)c1cc(C(=O)NC2CC2)cc([C@@H](C)c2ccccc2)n1 | 55.5 | 4.4 | 123 (≈ 380 µM) | 
CNC(=O)c1cc(C(=O)NC2CC2)cc(Cc2ccccc2)n1 | 38.5 | 3.9 | 89 (≈ 288 µM) | CLH [1]: < 1.3 mL/min/g; bioavailability [2]: 29%; CLH [4]: < 0.87 mL/min/g; clearance [5]: 12 mL/min/kg; CLH [6]: 5.3 mL/min/g; CL free [7]: 343 mL/min/kg; half-life [8]: 18 min; Vd [10]: 0.4 L/kg
CNC(=O)c1cc(C(=O)N[C@H]2[C@@H]3COC[C@@H]32)cc(C(CC#N)c2ccccc2)n1 (some centres not stated) | 20 | 3.1 | 930 (≈ 2380 µM) | CLH [1]: < 0.65 mL/min/g; bioavailability [2]: 54%; CLH [4]: < 0.45 mL/min/g; clearance [5]: 70 mL/min/kg; CLH [6]: 1.87 mL/min/g; half-life [8]: 264 min; Vd [10]: 5.9 L/kg
CNC(=O)c1cc(C(=O)NCCC[C@H]2OC[C@H](N)CO2)cc(Cc2ccccc2)n1 | 15 | 2.8 |  | CLH [1]: < 0.65 mL/min/g; bioavailability [11]: 98%; bioavailability [2]: 28%; clearance [12]: 42 mL/min/kg; CL free [13]: 118 mL/min/kg; CLH [4]: < 0.45 mL/min/g; clearance [5]: 31 mL/min/kg; CLH [6]: 1.04 mL/min/g; CL free [7]: 365 mL/min/kg; half-life [8]: 24 min; Vd [14]: 2.4 L/kg; Vd [10]: 0.7 L/kg; half-life [15]: 54 min
CNC(=O)c1cc(C(=O)NC(C)C)cc(Cc2ccccc2)n1 | 57 |  | 101 (≈ 324 µM) | 
CNC(=O)c1cc(C(=O)N[C@H]2[C@@H]3C[C@@H](O)C[C@@H]32)cc(C(OC)c2ccccc2)n1 (some centres not stated) | 5.6 | 2.9 |  | CLH [1]: < 0.65 mL/min/g; bioavailability [2]: 77%; CLH [4]: < 0.45 mL/min/g; clearance [5]: 57 mL/min/kg; CLH [6]: < 0.8 mL/min/g; CL free [7]: 95 mL/min/kg; half-life [8]: 42 min; Vd [10]: 1.8 L/kg
CNC(=O)c1cc(C(=O)NC2COC2)cc(Cc2ccccc2)n1 | 16 | 3.1 | 73 (≈ 224 µM) | 
CC(=O)Nc1ccc(C(=O)NCCc2cnc[nH]2)cc1OCc1ccccc1 |  | 2.2 |  | 
CNC(=O)c1cc(C(=O)N[C@H]2C[C@@H]2C)cc([C@@H](CC#N)c2ccccc2)n1 | 35.3 | 4 |  | 
CNC(=O)c1cc(C(N)=O)cc(Cc2ccccc2)n1 | 21 | 2.7 |  | 
CNC(=O)c1cc(C(=O)N[C@H]2C[C@@H]2C)cc([C@@H](CO)c2ccccc2)n1 | 10 | 3.3 | > 1000 | 
CNC(=O)c1cc(C(=O)N(C)C)cc(Cc2ccccc2)n1 | 33 | 3.3 |  | 

Structure (SMILES) | Papp [3] [×10⁻⁶ cm/s] | chromatographic logD (physchem) | solubility at 16 h [9] [µg/mL] | further results
CNC(=O)c1cc(C(=O)NC2CCOCC2)cc(Cc2ccccc2)n1 | 22 | 3.7 | 173 (≈ 489 µM) | 
CNC(=O)c1cc(C(=O)N[C@H]2[C@@H]3C[C@H](O)C[C@@H]32)cc([C@@H](C)c2ccccc2)n1 | 28 | 4.1 | 572 (≈ 1510 µM) | 
CCNC(=O)c1cc(Cc2ccccc2)nc(C(=O)NC)c1 |  | 3.7 | 310 (≈ 1040 µM) | 
CNC(=O)c1cc(C(=O)O)cc(Cc2ccccc2)n1 |  |  | > 1000 | 
CNC(=O)c1cc(C(=O)NC2CC2)cn([C@@H](C)c2ccccc2)c1=O |  | 3.3 | 598 (≈ 1760 µM) | 
CNC(=O)c1cc(C(=O)N[C@H]2[C@@H]3C[C@H](O)C[C@@H]32)cc(Cc2ccccc2)n1 | 15 | 3.5 | 43 (≈ 118 µM) | 
CNC(=O)c1cc(C(=O)NC2CC2)cc([C@@H](O)c2ccccc2)n1 | 7.15 | 2.4 | > 1000 | 
CNC(=O)c1cc(C(=O)N[C@H]2C[C@@H]2C)cc(Cc2ccccc2)n1 | 63 | 4.6 | 94 (≈ 291 µM) | 
CNC(=O)c1cc(C(=O)N[C@H]2[C@@H]3C[C@@H](O)C[C@@H]32)cc([C@@H](C)c2ccccc2)n1 | 13 | 3.6 | 744 (≈ 1960 µM) | 
CNC(=O)c1cc(C(=O)NC2CC2)cc(Cc2cccc3[nH]ccc23)n1 | 30.5 | 3.5 |  | 
CNC(=O)c1cc(C(=O)NC2CC2)cn(Cc2cccc3[nH]ccc23)c1=O | 17.8 |  | 20 (≈ 54.9 µM) | 
CNC(=O)c1cc(C(=O)N[C@H]2C[C@@H]2C)cc(C(OC)c2ccccc2)n1 (some centres not stated) | 56 | 4.3 |  | 
CNC(=O)c1cc(C(=O)N[C@H]2[C@@H]3C[C@@H](O)C[C@@H]32)cc(Cc2ccccc2)n1 | 7.1 | 3.1 | 143 (≈ 391 µM) | 
CNC(=O)c1cc(C(=O)NC2CC2)cn([C@H](C)c2ccccc2)c1=O |  | 3.5 |  | 
CNC(=O)c1cc(C(=O)N[C@H]2C[C@H](O)C2)cc(Cc2ccccc2)n1 | 7.3 | 2.7 | 194 (≈ 572 µM) | 
CNC(=O)c1cc(C(=O)NC2CC2)cc(Cc2cccc3cn[nH]c23)n1 | 20 | 2.9 |  | 
CNC(=O)c1cc(C(=O)N[C@H]2CC[C@H](O)CC2)cc(Cc2ccccc2)n1 | 8.6 | 3.1 | 473 (≈ 1290 µM) | 
CNC(=O)c1cc(C(=O)NC2CC2)cc([C@H](C)c2ccccc2)n1 | 49 | 4.3 | 182 (≈ 563 µM) | 
CNC(=O)c1cc(Cc2ccccc2)nc(C(=O)NC)c1 | 20 | 3.1 | > 1000 | 
